Experimental data as given in patent US20250352615A1, “COMPOSITIONS AND METHODS FOR THE MODULATION OF PIEZO1 AND TRPV4” (Duke University, priority 2021, published 2025).

Legend:
Format in all cases: cell-based
pancreatic acini = assay: Cell death assays of pancreatic acini (LDH release, Live/Dead, live-cell imaging)
Procedure: The viability of pancreatic acini with Yoda1 and CCK treatments was analyzed using the Live/Dead Cell Imaging Kit (Thermo Fisher Scientific, catalog R37601) or the LDH Release Assay Kit (Promega, catalog G1780).

Piezo1 = target: T1, Piezo1 (Homo sapiens, UniProt Q92508); assay: Calcium imaging of Piezo1-mediated [Ca2+]i in human PSCs; conditions: Yoda1 25 μM, quiescent PSCs
T1 construct: Fresh, human pancreatic tissue was digested with collagenase as described above with modifications; endogenous in cells; host or cells: primary human pancreatic stellate cells from fresh human pancreatic tissue
Procedure: (§1) Mouse and human PSCs were isolated using collagenase digestion. Modified Krebs Henseleit Buffer (KHB) solution (100 mL) was prepared as previously described by Romac et al., Nat. Commun. 9(1):1715 (2018). Pancreatic tissue was digested with 2 mg of collagenase NB 8 (SERVA, catalog 17456) dissolved in 10 mL of modified KHB solution containing 1 mg soybean trypsin inhibitor (SBTI 1-S; Millipore Sigma, catalog T9003) and 20 mg BSA (Thermo Fisher Scientific; BP1600-100). Digestion solution (5 mL) was used to inflate the pancreas. Pancreas with 5 mL of digestion solution was incubated in a shaking water bath for 10 minutes at 37° C. The solution was then discarded. The pancreas tissue was cut into small pieces and digested with fresh 5 mL digestion buffer. Tissue was incubated in a shaking water bath for 40 minutes at 37° C. The cells were then separated from tissue by pipetting up-down with a 10 mL pipette and passed sequentially through a 70 μm and a 40 μm cell strainer. The filtrate was centrifuged at 150×g for 3 minutes at room temperature. The cells were washed with 10 mL Leibovitz's media (Thermo Fisher Scientific, catalog 11415-064), passed through a 20 μm filter, and centrifuged at 80×g for 3 minutes at room temperature. The supernate was removed, and isolated stellate cells were plated on a thin-layered Matrigel-coated glass bottom culture plate (MatTek, P35G-0-14-C). […] The cell viability following Yoda1 treatment was analyzed using the Live/Dead cell imaging kit (Thermo Fisher Scientific, catalog R37601). […]
Fluid shear stress and mechanical pushing applied to stellate cells were achieved as previously described by Wang et al., J. Clin. Invest. […] The fluid shear stress (T) was calculated using the formula: τ=η×[…] φ for μ-Slide I 0.4 Luer and τ=η×330.4 φ for μ-Slide I 0.2 Luer, where r represents viscosity of the medium and φ represents flow rate (according to the manufacturer's instructions, Ibidi). […]

TRPV4 = target: T2, TRPV4 (Mus musculus, UniProt Q9EPK8); assay: Calcium imaging of TRPV4-mediated [Ca2+]i in pancreatic acini (agonists, shear stress, Yoda1 sustained phase); conditions: Yoda1
T2 construct: endogenous in cells; host or cells: freshly isolated mouse pancreatic acini (C57BL/6J WT)
Procedure: Mouse pancreatic acini were isolated using a standard collagenase digestion protocol. Isolated acini were plated on a thin-layered, Matrigel-coated, glass-bottom, culture plate (MatTek, P35G-0-14-C). Freshly isolated acini were used in each experiment.
Parallel-plate fluid flow chambers (μ-Slide I 0.4 Luer, and μ-Slide I 0.2 Luer from Ibidi GmbH) were used to measure the shear stress-induced changes in intracellular calcium, mitochondrial depolarization, and trypsin activation. The constant flow rate with shear stress (T) was determined as follows: τ=η×[…] φ for μ-Slide I 0.4 Luer and τ=η×330.4 φ for μ-Slide I 0.2 Luer, where η=viscosity of the medium and φ=flow rate (according to the manufacturer's instructions, Ibidi).
Calcium imaging in pancreatic acini was performed as previously described. The chemicals used in calcium imaging experiments included the following: Yoda1 (Tocris; 5586), GsMTx4 (Abcam; ab141871), 5′,6′-EET (Santa Cruz Biotechnology; sc-221066), AA (Millipore Sigma; A3611), HC067047 (Tocris; 4100), GSK1016790A (Millipore Sigma; G0798), RN1734 (Tocris; 3746), AACOCF3 (Tocris; 1462), YM26734 (Tocris; 2522), GF109203X (Tocris; 0741), and CCK8 (Sigma-Aldrich).

mouse PSCs = assay: Mouse PSC activation and fibrogenic response; conditions: Yoda1 25 μM
Procedure: as §1, with “P35G-0-14-C). Before plating the cells, Matrigel solution (Corning, catalog 354234) at a ratio of 1.5:100 DMEM/F12 (Thermo Fisher Scientific, catalog 11330-032) was poured onto the culture plate and incubated for 2 hr at 37° C. to form a thin layer of Matrigel coating. Matrigel mixture was removed, and the plate was washed with PBS before cells were plated. Cell culture media, DMEM/F12 with 5% FBS was used for mouse stellate cells. Fresh, human pancreatic tissue was digested with collagenase as described above with modifications.” for “P35G-0-14-C).”

T1 sequence (Q92508 whole entry): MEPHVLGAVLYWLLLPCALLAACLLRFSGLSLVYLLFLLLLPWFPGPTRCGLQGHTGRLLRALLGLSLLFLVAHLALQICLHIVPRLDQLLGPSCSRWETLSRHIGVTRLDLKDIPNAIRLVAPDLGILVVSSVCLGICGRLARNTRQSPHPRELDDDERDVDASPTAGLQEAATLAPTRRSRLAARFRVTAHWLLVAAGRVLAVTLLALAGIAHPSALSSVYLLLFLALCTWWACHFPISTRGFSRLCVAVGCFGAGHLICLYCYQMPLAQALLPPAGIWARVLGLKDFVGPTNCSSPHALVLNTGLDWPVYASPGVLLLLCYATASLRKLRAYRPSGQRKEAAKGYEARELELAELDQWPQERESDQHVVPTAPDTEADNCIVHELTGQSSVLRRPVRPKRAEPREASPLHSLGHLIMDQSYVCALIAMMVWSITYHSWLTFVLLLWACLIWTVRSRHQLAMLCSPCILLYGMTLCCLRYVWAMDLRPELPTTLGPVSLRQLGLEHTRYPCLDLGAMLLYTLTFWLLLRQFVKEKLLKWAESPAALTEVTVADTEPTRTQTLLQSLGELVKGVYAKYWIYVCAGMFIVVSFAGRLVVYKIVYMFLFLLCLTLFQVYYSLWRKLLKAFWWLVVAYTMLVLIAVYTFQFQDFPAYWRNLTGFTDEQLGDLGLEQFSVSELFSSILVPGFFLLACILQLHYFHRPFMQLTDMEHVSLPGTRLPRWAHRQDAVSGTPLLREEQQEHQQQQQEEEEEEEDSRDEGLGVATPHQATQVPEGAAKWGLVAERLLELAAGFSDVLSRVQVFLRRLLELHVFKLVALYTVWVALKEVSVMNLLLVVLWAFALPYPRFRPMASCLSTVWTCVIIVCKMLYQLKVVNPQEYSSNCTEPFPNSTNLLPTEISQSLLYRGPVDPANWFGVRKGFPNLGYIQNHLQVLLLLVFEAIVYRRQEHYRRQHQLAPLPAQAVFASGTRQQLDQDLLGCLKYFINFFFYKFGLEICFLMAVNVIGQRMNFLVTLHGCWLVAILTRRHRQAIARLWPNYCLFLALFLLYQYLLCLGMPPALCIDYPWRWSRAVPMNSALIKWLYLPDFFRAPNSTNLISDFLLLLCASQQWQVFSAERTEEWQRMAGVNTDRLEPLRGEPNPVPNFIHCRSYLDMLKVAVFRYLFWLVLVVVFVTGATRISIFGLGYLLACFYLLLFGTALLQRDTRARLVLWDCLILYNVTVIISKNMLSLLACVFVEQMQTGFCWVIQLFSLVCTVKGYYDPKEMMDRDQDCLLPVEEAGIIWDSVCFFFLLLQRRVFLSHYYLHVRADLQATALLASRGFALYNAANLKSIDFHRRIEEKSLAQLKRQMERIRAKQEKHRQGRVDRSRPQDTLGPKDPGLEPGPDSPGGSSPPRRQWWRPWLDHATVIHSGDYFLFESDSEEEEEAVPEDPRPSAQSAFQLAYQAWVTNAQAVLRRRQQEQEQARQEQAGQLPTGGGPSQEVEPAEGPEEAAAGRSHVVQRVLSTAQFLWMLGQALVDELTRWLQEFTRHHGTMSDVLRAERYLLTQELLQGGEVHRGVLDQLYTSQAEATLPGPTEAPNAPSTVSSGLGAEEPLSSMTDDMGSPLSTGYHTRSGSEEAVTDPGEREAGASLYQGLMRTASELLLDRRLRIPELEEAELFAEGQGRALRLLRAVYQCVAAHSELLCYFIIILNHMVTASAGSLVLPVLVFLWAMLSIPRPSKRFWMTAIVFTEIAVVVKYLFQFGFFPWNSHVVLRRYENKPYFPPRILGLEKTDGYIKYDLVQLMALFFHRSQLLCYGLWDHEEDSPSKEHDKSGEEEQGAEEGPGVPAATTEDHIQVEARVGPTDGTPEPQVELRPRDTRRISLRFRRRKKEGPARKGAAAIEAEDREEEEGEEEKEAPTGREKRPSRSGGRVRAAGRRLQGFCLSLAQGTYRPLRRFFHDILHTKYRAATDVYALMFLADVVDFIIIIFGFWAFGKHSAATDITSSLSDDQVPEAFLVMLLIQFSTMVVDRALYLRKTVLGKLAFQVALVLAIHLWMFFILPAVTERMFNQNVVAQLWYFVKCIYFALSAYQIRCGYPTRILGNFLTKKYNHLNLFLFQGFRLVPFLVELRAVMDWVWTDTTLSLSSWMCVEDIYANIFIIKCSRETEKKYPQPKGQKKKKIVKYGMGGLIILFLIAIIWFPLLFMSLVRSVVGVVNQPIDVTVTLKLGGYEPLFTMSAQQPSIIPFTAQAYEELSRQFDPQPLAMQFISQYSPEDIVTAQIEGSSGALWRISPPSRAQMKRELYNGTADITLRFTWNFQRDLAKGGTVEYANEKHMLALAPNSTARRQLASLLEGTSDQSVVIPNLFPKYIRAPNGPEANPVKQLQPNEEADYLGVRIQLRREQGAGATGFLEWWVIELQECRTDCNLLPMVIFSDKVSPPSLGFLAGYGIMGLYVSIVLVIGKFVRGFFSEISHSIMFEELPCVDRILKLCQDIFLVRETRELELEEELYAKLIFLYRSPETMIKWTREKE
T2 sequence (Q9EPK8 whole entry): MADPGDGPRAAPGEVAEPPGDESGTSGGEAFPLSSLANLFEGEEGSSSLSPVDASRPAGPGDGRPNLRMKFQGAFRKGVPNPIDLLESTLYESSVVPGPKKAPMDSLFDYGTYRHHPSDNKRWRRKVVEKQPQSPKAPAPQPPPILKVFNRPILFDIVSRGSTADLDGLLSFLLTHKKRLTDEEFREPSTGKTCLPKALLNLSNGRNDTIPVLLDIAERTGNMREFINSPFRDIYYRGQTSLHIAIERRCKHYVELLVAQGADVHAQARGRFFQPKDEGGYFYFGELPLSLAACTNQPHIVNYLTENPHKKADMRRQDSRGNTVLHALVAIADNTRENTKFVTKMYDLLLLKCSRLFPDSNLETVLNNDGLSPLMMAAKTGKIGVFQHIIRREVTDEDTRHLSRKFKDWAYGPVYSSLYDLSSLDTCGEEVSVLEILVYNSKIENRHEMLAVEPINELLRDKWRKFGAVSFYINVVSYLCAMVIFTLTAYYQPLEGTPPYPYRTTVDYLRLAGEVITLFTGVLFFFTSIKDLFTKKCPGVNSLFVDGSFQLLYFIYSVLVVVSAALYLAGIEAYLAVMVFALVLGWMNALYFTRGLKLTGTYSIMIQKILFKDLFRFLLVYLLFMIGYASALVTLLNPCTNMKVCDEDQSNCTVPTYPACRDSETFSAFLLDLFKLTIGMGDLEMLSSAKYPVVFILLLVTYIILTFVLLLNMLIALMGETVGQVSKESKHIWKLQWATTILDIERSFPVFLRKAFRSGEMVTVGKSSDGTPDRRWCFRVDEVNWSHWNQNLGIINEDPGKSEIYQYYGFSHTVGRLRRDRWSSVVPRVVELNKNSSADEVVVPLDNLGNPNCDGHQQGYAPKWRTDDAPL

Clc1cccc(Cl)c1CSc1nnc(-c2cnccn2)s1 [Yoda1]
acinar cell death, both Yoda1 and CCK vs individual application (pancreatic acini; Yoda1 50 μM + CCK 1 nM, WT acini): acinar cell death was greater | acinar cell morphology by live-cell imaging (pancreatic acini; Yoda1 50 μM, WT acini): caused swelling of WT pancreatic acinar cells and release of zymogen granules from the basolateral surface and gradually ruptured the cell membrane | response of acinar cells from Piezo1aci-KO mice (live-cell imaging) (pancreatic acini; Yoda1, Piezo1aci-KO acini): did not respond to Yoda1 | [Ca2+]i response to Yoda1 (Piezo1): caused calcium overload in quiescent pancreatic stellate cells | [Ca2+]i response in acini from TRPV4-KO mice (TRPV4): only transient elevation in [Ca^2+]i | activation of PSCs from TRPV4-KO mice (cell shape, perinuclear fat droplets, ECM protein expression) (mouse PSCs): did not activate PSCs from TRPV4-KO mice | effects of Yoda1 on fibrosis in Piezo1-deleted PSCs (mouse PSCs; Piezo1GFAP-KO PSCs): prevented in Piezo1-deleted PSCs | PSC activation phenotype (mouse PSCs; WT mouse PSCs): converted mouse PSCs to an activated phenotype with reduced perinuclear fat droplets, changes in cell shape, and increased fibronectin and collagen type I
